According to ChEMBL document CHEMBL2021851, “Synthesis and SAR studies of imidazo-[1,2-a]-pyrazine Aurora kinase inhibitors with improved off-target kinase selectivity” (Bioorg Med Chem Lett, 2012):

Assays:
[1] = molecular target: Ribosomal protein S6 kinase alpha-3 (Homo sapiens, UniProt P51812); assay: Inhibition of RSK2
[2] = molecular target: Tyrosine-protein kinase Lck (Homo sapiens, UniProt P06239); assay: Inhibition of LCK
[3] = molecular target: T1, Aurora kinase B (Homo sapiens, UniProt Q96GD4); assay: Inhibition of aurora B kinase in human HCT116 cells assessed as inhibition of histone H3 phosphorylation incubated for 1 hr by Hoechst 33342 staining based microscopic analysis; assay type: cell-based, HCT-116
T1 sequence (Q96GD4 whole entry): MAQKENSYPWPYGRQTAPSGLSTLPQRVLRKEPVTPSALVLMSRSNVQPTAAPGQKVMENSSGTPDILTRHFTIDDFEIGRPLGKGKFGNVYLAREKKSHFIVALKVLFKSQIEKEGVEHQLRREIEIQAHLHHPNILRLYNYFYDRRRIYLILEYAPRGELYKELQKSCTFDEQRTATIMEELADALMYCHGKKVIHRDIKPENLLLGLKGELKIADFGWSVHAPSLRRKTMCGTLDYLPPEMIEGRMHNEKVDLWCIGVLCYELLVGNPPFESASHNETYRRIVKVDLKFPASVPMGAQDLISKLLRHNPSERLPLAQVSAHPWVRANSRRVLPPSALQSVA

[4] = molecular target: T1, Aurora kinase B; assay: Inhibition of aurora B kinase using 5TAMRA-GRTGRRNSICOOH as substrate by fluorescent assay
[5] = molecular target: T2, Aurora kinase A (Homo sapiens, UniProt O14965); assay: Inhibition of aurora A kinase using 5TAMRA-GRTGRRNSICOOH as substrate by fluorescent assay
T2 sequence (O14965 whole entry): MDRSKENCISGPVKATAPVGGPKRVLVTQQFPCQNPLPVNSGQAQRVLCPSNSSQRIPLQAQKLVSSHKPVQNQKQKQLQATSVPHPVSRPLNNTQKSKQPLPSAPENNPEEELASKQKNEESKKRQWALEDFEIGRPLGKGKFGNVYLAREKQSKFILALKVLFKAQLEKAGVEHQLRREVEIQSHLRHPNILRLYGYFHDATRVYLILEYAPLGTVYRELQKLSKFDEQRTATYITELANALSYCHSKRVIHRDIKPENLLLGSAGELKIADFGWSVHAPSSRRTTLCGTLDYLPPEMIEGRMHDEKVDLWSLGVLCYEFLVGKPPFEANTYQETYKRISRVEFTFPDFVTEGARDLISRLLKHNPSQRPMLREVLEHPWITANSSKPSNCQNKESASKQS

[6] = molecular target: T3, Interleukin-1 receptor-associated kinase 4 (Homo sapiens, UniProt Q9NWZ3); assay: Inhibition of IRAK4
T3 sequence (Q9NWZ3 whole entry): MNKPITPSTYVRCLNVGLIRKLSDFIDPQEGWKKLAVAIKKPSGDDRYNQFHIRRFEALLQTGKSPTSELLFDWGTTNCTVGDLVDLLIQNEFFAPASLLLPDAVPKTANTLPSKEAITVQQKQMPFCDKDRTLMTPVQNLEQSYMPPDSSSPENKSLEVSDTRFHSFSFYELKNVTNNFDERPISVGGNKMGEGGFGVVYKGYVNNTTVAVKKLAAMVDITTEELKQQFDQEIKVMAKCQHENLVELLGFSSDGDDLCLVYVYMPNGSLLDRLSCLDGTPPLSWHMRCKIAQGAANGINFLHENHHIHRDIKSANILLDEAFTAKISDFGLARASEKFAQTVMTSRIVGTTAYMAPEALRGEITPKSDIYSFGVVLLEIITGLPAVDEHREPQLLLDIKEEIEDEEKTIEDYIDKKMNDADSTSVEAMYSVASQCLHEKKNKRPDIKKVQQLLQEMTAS

[7] = molecular target: Vascular endothelial growth factor receptor 2 (Homo sapiens, UniProt P35968); assay: Inhibition of VEGFR2
Vascular endothelial growth factor receptor 2, sequence (P35968 whole entry): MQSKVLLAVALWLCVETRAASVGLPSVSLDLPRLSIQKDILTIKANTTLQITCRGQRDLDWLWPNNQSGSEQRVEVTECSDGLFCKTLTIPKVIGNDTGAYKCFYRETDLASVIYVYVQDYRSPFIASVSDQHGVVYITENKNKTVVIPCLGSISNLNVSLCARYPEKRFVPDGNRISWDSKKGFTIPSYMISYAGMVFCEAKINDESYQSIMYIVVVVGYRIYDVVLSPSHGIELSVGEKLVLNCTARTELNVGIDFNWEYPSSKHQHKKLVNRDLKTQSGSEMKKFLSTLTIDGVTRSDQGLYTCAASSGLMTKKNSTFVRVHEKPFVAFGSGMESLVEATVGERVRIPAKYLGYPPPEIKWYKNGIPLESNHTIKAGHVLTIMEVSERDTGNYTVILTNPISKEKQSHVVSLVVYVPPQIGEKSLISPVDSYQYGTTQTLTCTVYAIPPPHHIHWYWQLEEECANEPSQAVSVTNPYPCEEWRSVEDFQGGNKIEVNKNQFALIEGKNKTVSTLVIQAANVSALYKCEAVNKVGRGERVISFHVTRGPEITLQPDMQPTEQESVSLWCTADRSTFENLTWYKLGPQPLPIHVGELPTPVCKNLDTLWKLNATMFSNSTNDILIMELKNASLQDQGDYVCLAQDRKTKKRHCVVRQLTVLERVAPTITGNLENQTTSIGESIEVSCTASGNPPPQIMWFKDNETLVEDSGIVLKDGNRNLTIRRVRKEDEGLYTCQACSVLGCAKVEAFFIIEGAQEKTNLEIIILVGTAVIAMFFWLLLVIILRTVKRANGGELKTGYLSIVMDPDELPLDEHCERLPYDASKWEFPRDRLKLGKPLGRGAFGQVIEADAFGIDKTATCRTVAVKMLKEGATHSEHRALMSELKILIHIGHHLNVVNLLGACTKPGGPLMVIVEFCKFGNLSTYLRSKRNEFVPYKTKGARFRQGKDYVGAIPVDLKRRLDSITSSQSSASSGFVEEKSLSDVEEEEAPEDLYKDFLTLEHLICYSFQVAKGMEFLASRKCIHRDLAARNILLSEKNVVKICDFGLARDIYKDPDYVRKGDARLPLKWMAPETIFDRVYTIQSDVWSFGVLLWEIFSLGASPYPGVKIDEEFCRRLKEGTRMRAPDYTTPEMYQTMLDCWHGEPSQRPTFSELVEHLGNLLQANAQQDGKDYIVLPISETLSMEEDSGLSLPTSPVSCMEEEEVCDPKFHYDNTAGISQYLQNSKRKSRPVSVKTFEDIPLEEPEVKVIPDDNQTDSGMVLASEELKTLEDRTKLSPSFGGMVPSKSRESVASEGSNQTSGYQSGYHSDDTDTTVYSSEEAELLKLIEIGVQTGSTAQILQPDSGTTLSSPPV

[8] = molecular target: T4, Serine/threonine-protein kinase Chk1 (Homo sapiens, UniProt O14757); assay: Inhibition of Chk1
T4 sequence (O14757 whole entry): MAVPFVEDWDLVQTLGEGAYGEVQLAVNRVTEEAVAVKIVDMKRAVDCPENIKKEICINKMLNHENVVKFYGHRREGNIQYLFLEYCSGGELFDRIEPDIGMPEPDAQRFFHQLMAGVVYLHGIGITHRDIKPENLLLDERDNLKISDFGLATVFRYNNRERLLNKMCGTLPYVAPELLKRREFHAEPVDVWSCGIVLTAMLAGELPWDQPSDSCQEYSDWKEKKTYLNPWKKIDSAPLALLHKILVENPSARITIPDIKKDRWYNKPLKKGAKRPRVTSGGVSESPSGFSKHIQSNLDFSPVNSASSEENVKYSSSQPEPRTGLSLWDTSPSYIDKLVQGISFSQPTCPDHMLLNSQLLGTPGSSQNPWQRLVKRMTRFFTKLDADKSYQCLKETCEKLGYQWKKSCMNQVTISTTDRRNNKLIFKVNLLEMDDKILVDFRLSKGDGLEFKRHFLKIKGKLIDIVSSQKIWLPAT

Tyrosine-protein kinase Lck, sequence (P06239 whole entry): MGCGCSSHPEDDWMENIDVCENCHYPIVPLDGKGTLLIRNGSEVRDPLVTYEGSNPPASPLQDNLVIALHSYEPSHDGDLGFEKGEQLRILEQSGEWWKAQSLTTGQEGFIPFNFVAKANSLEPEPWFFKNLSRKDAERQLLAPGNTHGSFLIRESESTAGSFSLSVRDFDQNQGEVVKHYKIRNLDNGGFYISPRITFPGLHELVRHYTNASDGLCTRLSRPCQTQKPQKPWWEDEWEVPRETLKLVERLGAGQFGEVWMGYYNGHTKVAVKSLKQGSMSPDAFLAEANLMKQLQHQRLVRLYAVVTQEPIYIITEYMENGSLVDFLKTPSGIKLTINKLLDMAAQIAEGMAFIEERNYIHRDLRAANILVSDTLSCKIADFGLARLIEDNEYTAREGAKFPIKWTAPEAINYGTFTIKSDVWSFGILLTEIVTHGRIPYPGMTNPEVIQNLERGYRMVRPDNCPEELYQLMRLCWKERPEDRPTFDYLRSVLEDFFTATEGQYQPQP
Ribosomal protein S6 kinase alpha-3, sequence (P51812 whole entry): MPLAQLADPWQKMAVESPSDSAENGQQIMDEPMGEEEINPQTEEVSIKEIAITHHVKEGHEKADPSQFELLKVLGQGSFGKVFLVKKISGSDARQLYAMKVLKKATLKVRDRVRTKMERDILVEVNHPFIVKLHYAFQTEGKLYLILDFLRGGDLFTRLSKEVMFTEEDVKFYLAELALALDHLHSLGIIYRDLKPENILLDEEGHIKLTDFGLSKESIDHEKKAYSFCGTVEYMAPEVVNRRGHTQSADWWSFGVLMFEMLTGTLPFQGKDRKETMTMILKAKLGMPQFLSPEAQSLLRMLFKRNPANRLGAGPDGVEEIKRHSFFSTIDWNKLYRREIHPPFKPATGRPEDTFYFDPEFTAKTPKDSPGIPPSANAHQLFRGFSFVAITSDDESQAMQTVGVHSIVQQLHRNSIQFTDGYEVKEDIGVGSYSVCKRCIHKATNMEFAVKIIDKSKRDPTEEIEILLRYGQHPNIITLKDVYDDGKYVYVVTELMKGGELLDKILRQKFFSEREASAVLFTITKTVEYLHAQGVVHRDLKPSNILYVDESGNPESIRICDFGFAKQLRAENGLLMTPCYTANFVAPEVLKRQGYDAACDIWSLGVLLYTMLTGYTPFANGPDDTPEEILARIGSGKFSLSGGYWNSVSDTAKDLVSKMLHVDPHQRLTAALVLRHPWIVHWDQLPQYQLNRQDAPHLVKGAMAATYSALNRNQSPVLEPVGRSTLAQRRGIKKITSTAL

SMILES | IC50 [1] [nM] | IC50 [2] [nM] | EC50 [3] [nM] | IC50 [4] [nM] | IC50 [5] [nM] | IC50 [6] [nM] | IC50 [7] [nM] | IC50 [8] [nM]
Cc1cn2c(-c3cnn(CC(=O)Nc4ccncc4)c3)cnc2c(Nc2cc(CN3CCCC(C)C3)ns2)n1 (stereo unspecified) | 1100 | 731 | 83 | ≤ 13 | 12 | 1140 | 108 | 100
Cc1cn2c(-c3cnn(CC(=O)NCc4cccs4)c3)cnc2c(Nc2cc(CN3CCCC(C)C3)ns2)n1 (stereo unspecified) | 7700 | 579 | 193 | ≤ 13 | 27 | 873 | 234 | 300
